Assay results from patent US20120070508A1, “Methods, Compositions, and Devices for Managing Chlorine Dioxide Release” (DHARMA IP, LLC, priority 2010, published 2012).

Test: Enhanced solubility of beta-cyclodextrin in water containing ClO2 (slurry test)
Conditions: 100 g slurry, 5% (w/w) in 8000 ppm ClO2 vs ultrapure water, 200 rpm, 3 days

weight of undissolved dried beta-cyclodextrin, less than control slurry: 0.32 g
SMILES: OC[C@H]1O[C@@H]2O[C@H]3[C@H](O)[C@@H](O)[C@@H](O[C@H]4[C@H](O)[C@@H](O)[C@@H](O[C@H]5[C@H](O)[C@@H](O)[C@@H](O[C@H]6[C@H](O)[C@@H](O)[C@@H](O[C@H]7[C@H](O)[C@@H](O)[C@@H](O[C@H]8[C@H](O)[C@@H](O)[C@@H](O[C@H]1[C@H](O)[C@H]2O)O[C@@H]8CO)O[C@@H]7CO)O[C@@H]6CO)O[C@@H]5CO)O[C@@H]4CO)O[C@@H]3CO [beta-cyclodextrin]
